Reference: patent US11111230B2 (ADLAI NORTYE BIOPHARMA CO., LTD., priority 2017, dated 2021)
pIC50: −log10 of the molar value.

Columns and labels:
human IDO1 protein = molecular target: T1, human IDO1 protein (Homo sapiens, UniProt P14902); experiment: Activity in HEK293 cells highly expressing human IDO1 protein; assay type: cell-based; details: HEK293-IDO cells, tryptophan 16 mg/L, 24 hours, absorption at 480 nm; read-out: IC50 (HEK293 cell)
T1 construct: expressed in transfected cells; host or cells: HEK293
Method: Example 2: Study on the Activity of the Present Invention in HEK293 Cells Highly Expressing Human IDO1 Protein
HEK293-IDO cells with high expression of human IDO1 protein were prepared by electrotransformation, and the cells were seeded in 96-well culture plates, and cultured at 37° C., 100% relative humidity, and 5% CO2 incubator for 24 hours. Dissolve in DMSO and dilute to the appropriate concentration, then use DMEM medium containing 10% fetal bovine serum to dilute the candidate 100-fold to the final concentration. Aspirate the old medium from the 96-well plate and add 200 μL of the medium contained in the previous step to each well. The content of tryptophan in the medium is 16 mg/L. The cells were placed in a 37° C., 100% relative humidity, and 5% CO2 incubator for 24 hours. 140 μL of the cell culture supernatant was mixed with 15 μL of trichloroacetic acid and placed at 52° C. for 30 min. Mix with an equal volume of Ehrlich's reagent, measure the light absorption at 480 nm, and calculate the IC50 values.

Hela cells = experiment: Activity in Hela cells (interferon-γ induced, kynurenine readout with Ehrlich's reagent); assay type: cell-based; details: Homo sapiens, interferon-γ 50 ng/mL, tryptophan 16 mg/L, 48 hours, absorption at 480 nm
Method: Example 1: Study on the Activity of the Compound of the Present Invention in Hela Cells
Hela cells were seeded in 96-well culture plates and incubated at 37° C., 100% relative humidity, 5% CO2 incubator for 24 hours. The compound was dissolved in DMSO and diluted to an appropriate concentration, and then the compound was diluted 100-fold with DMEM medium containing interferon-γ and 10% fetal bovine serum to the final concentration of effect. Aspirate the old medium from the 96-well plate and add 200 μL of each medium containing compound and interferon-γ from the previous step. The content of tryptophan in the medium is 16 mg/L, and the concentration of interferon-γ is 50 ng/mL. The cells were placed in a 37° C., 100% relative humidity, and 5% CO2 incubator for 48 hours, then 140 μL of the cell culture supernatant was mixed with 15 μL of trichloroacetic acid, and placed at 52° C. for 30 min, then centrifuged at room temperature to take the centrifugal supernatant. Mix with an equal volume of Ehrlich's reagent, measure the light absorption at 480 nm, and calculate the IC50 values.

T1 sequence (P14902 whole entry): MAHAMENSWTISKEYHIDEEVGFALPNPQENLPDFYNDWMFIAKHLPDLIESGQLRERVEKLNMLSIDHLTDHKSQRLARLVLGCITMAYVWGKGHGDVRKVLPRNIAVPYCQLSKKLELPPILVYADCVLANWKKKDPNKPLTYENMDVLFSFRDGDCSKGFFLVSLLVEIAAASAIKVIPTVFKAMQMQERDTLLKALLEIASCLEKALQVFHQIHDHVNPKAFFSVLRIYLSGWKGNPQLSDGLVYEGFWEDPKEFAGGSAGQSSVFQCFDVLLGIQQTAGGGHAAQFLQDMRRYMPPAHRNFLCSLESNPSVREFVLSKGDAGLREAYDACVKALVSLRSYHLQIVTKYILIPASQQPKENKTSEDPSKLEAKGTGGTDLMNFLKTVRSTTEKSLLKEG

| pIC50 (human IDO1 protein) | pIC50 (Hela cells) | Compound |
| --- | --- | --- |
| 8.00 to 10.00 | 8.00 to 10.00 | O=C(Nc1ccc(Cl)cc1)[C@H]1CC12CCC(c1ccnc3ccc(F)cc13)CC2 (single isomer, unassigned) [Compound 10a] |
| < 7.00 | < 7.00 | O=C(Nc1ccc(Cl)cc1)[C@@H]1CC12CCC(c1ccnc3ccc(F)cc13)CC2 (single isomer, unassigned) [Compound 10b] |
| 8.00 to 10.00 | 8.00 to 10.00 | Cc1cc2nccc([C@H]3CC[C@@]4(CC3)C[C@@H]4C(=O)Nc3ccc(Cl)cc3)c2cc1F (single isomer, unassigned) [Compound 92] |
| < 7.00 | < 7.00 | Cc1cc2nccc([C@H]3CC[C@@]4(CC3)C[C@H]4C(=O)Nc3ccc(Cl)cc3)c2cc1F (single isomer, unassigned) [Compound 93] |
| 8.00 to 10.00 | 8.00 to 10.00 | COCCOc1ccc(NC(=O)[C@H]2C[C@]23CC[C@H](c2ccnc4cc(C)c(F)cc42)CC3)cc1 (single isomer, unassigned) [Compound 98] |
| < 7.00 | < 7.00 | COCCOc1ccc(NC(=O)[C@@H]2C[C@]23CC[C@H](c2ccnc4cc(C)c(F)cc42)CC3)cc1 (single isomer, unassigned) [Compound 99] |
| 8.00 to 10.00 | 8.00 to 10.00 | COc1cc2nccc([C@H]3CC[C@@]4(CC3)C[C@@H]4C(=O)Nc3ccc(Cl)cc3)c2cc1F (single isomer, unassigned) [Compound 108] |
| < 7.00 | < 7.00 | COc1cc2nccc([C@H]3CC[C@@]4(CC3)C[C@H]4C(=O)Nc3ccc(Cl)cc3)c2cc1F (single isomer, unassigned) [Compound 109] |
| 7.00 to 8.00 | 8.00 to 10.00 | O=C(Nc1ccc(Cl)cc1)C1CC12CCC(c1ccnc3ccc(F)cc13)CC2 (stereo not shown) [Compound 1, N-(4-chlorophenyl)-6-(6-fluoroquinolin-4-yl)spiro[2.5]octane-1-carboxamide] |
| 7.00 to 8.00 | 7.00 to 8.00 | O=C(Nc1ccc(F)cc1)C1CC12CCC(c1ccnc3ccc(F)cc13)CC2 (stereo not shown) [Compound 2, N-(4-fluorophenyl)-6-(6-fluoroquinolin-4-yl)spiro[2.5]octane-1-carboxamide] |
| < 7.00 | < 7.00 | O=C(NCc1ccc(Cl)cc1)C1CC12CCC(c1ccnc3ccc(F)cc13)CC2 (stereo not shown) [Compound 3, N-(4-chlorobenzyl)-6-(6-fluoroquinolin-4-yl)spiro[2.5]octane-1-carboxamide] |
| < 7.00 | < 7.00 | O=C(NCCc1ccc(Cl)cc1)C1CC12CCC(c1ccnc3ccc(F)cc13)CC2 (stereo not shown) [Compound 4, N-(4-chlorophenethyl)-6-(6-fluoroquinolin-4-yl)spiro[2.5]octane-1-carboxamide] |
| 7.00 to 8.00 | < 7.00 | O=C(Nc1ccc(C(F)(F)F)cc1)C1CC12CCC(c1ccnc3ccc(F)cc13)CC2 (stereo not shown) [Compound 5, 6-(6-fluoroquinolin-4-yl)-N-(4-(trifluoromethyl)phenyl)spiro[2.5]octane-1-carboxamide] |
| 7.00 to 8.00 | 7.00 to 8.00 | N#Cc1ccc(NC(=O)C2CC23CCC(c2ccnc4ccc(F)cc24)CC3)cc1 (stereo not shown) [Compound 6, N-(4-cyanophenyl)-6-(6-fluoroquinolin-4-yl)spiro[2.5]octane-1-carboxamide] |
| 7.00 to 8.00 | 7.00 to 8.00 | O=C(Nc1ccc(Cl)nc1)C1CC12CCC(c1ccnc3ccc(F)cc13)CC2 (stereo not shown) [Compound 7, N-(6-chloropyridin-3-yl)-6-(6-fluoroquinolin-4-yl)spiro[2.5]octane-1-carboxamide] |
| 7.00 to 8.00 | 7.00 to 8.00 | O=C(Nc1ccc(Cl)cn1)C1CC12CCC(c1ccnc3ccc(F)cc13)CC2 (stereo not shown) [Compound 8, N-(5-chloropyridin-2-yl)-6-(6-fluoroquinolin-4-yl)spiro[2.5]octane-1-carboxamide] |
| 8.00 to 10.00 | 8.00 to 10.00 | Cc1cc2nccc(C3CCC4(CC3)CC4C(=O)Nc3ccc(Cl)cc3)c2cc1F (stereo not shown) [Compound 9, N-(4-chlorophenyl)-6-(6-fluoro-7-methylquinolin-4-yl)spiro[2.5]octane-1-carboxamide] |
| 7.00 to 8.00 | 8.00 to 10.00 | O=C(Nc1ccc(Br)cc1)C1CC12CCC(c1ccnc3ccc(F)cc13)CC2 (stereo not shown) [Compound 11, N-(4-bromophenyl)-6-(6-fluoroquinolin-4-yl)spiro[2.5]octane-1-carboxamide] |
| 7.00 to 8.00 | 7.00 to 8.00 | O=C(Nc1ccc(Cl)c(F)c1)C1CC12CCC(c1ccnc3ccc(F)cc13)CC2 (stereo not shown) [Compound 12, N-(4-chloro-3-fluorophenyl)-6-(6-fluoroquinolin-4-yl)spiro[2.5]octane-1-carboxamide] |
|  | 8.00 to 10.00 | O=S(=O)(Nc1ccc(Cl)cc1)C1CC12CCC(c1ccnc3ccc(F)cc13)CC2 (stereo not shown) [Compound 14, N-(4-chlorophenyl)-6-(6-fluoroquinolin-4-yl)spiro[2.5]octane-1-sulfonamide] |
|  | 8.00 to 10.00 | O=S(=O)(Nc1ccc(F)cc1)C1CC12CCC(c1ccnc3ccc(F)cc13)CC2 (stereo not shown) [Compound 15] |
|  | 8.00 to 10.00 | O=S(=O)(Nc1ccc(C(F)(F)F)cc1)C1CC12CCC(c1ccnc3ccc(F)cc13)CC2 (stereo not shown) [Compound 16] |
|  | 8.00 to 10.00 | COc1ccc(NS(=O)(=O)C2CC23CCC(c2ccnc4ccc(F)cc24)CC3)cc1 (stereo not shown) [Compound 17] |

| pIC50 (human IDO1 protein) | pIC50 (Hela cells) | Compound |
| --- | --- | --- |
|  | 8.00 to 10.00 | Cc1ccc(NS(=O)(=O)C2CC23CCC(c2ccnc4ccc(F)cc24)CC3)cc1 (stereo not shown) [Compound 18] |
|  | 8.00 to 10.00 | N#Cc1ccc(NS(=O)(=O)C2CC23CCC(c2ccnc4ccc(F)cc24)CC3)cc1 (stereo not shown) [Compound 19] |
|  | < 7.00 | Cc1ccc(NC(=O)N2CC23CCC(c2ccnc4ccc(F)cc24)CC3)cc1 (stereo not shown) [Compound 24] |
|  | 7.00 to 8.00 | O=C(Nc1ccc(Cl)cc1)C1COC12CCC(c1ccnc3ccc(F)cc13)CC2 (stereo not shown) [Compound 50, N-(4-chlorophenyl)-7-(6-fluoroquinolin-4-yl)-1-oxaspiro[3.5]nonane-3-carboxamide] |
|  | 7.00 to 8.00 | O=C(Nc1ccc(F)cc1)C1COC12CCC(c1ccnc3ccc(F)cc13)CC2 (stereo not shown) [Compound 51] |
|  | 7.00 to 8.00 | O=C(Nc1ccc(C(F)(F)F)cc1)C1COC12CCC(c1ccnc3ccc(F)cc13)CC2 (stereo not shown) [Compound 52] |
|  | 7.00 to 8.00 | COc1ccc(NC(=O)C2COC23CCC(c2ccnc4ccc(F)cc24)CC3)cc1 (stereo not shown) [Compound 53] |
|  | 7.00 to 8.00 | Cc1ccc(NC(=O)C2COC23CCC(c2ccnc4ccc(F)cc24)CC3)cc1 (stereo not shown) [Compound 54] |
|  | 7.00 to 8.00 | N#Cc1ccc(NC(=O)C2COC23CCC(c2ccnc4ccc(F)cc24)CC3)cc1 (stereo not shown) [Compound 55] |
|  | 8.00 to 10.00 | Cc1cc2nccc(C3CCC4(CC3)CC4C(=O)Nc3ccc(F)cc3)c2cc1F (stereo not shown) [Compound 80, 6-(6-fluoro-7-methylquinolin-4-yl)-N-(4-fluorophenyl)spiro[2.5]octane-1-carboxamide] |
|  | 8.00 to 10.00 | Cc1cc2nccc(C3CCC4(CC3)CC4C(=O)Nc3ccc(C#N)cc3)c2cc1F (stereo not shown) [Compound 81] |
|  | 8.00 to 10.00 | Cc1cc2nccc(C3CCC4(CC3)CC4C(=O)Nc3ccc(C(F)(F)F)cc3)c2cc1F (stereo not shown) [Compound 82] |
|  | 8.00 to 10.00 | Cc1ccc(NC(=O)C2CC23CCC(c2ccnc4cc(C)c(F)cc24)CC3)cc1 (stereo not shown) [Compound 83] |
|  | 8.00 to 10.00 | COc1ccc(NC(=O)C2CC23CCC(c2ccnc4cc(C)c(F)cc24)CC3)cc1 (stereo not shown) [Compound 84] |
|  | 8.00 to 10.00 | Cc1cc2nccc(C3CCC4(CC3)CC4C(=O)Nc3ccc(Br)cc3)c2cc1F (stereo not shown) [Compound 85] |
|  | 8.00 to 10.00 | Cc1cc2nccc(C3CCC4(CC3)CC4C(=O)Nc3ccc(Cl)c(F)c3)c2cc1F (stereo not shown) [Compound 86] |
|  | < 7.00 | CN1CC(C(=O)Nc2ccc(Cl)cc2)C2(CCC(c3ccnc4ccc(F)cc34)CC2)C1 (stereo not shown) [Compound 87, N-(4-chlorophenyl)-8-(6-fluoroquinolin-4-yl)-2-methyl-2-azaspiro[4.5]decane-4-carboxamide] |
|  | < 7.00 | CN1CC(C(=O)Nc2ccc(F)cc2)C2(CCC(c3ccnc4ccc(F)cc34)CC2)C1 (stereo not shown) [Compound 88] |
|  | < 7.00 | CN1CC(C(=O)Nc2ccc(C(F)(F)F)cc2)C2(CCC(c3ccnc4ccc(F)cc34)CC2)C1 (stereo not shown) [Compound 89] |
|  | < 7.00 | CN1CC(C(=O)Nc2ccc(Br)cc2)C2(CCC(c3ccnc4ccc(F)cc34)CC2)C1 (stereo not shown) [Compound 90] |
|  | < 7.00 | CN1CC(C(=O)Nc2ccc(C#N)cc2)C2(CCC(c3ccnc4ccc(F)cc34)CC2)C1 (stereo not shown) [Compound 91] |
|  | 8.00 to 10.00 | COCc1cc2nccc(C3CCC4(CC3)CC4C(=O)Nc3ccc(Cl)cc3)c2cc1F (stereo not shown) [Compound 115, N-(4-chlorophenyl)-6-(6-fluoro-7-(methoxymethyl)quinolin-4-yl)spiro[2.5]octane-1-carb oxamide] |
